From paper PMC12146708 (Proceedings of the National Academy of Sciences of the …, 2025)
pKd: −log10 of the molar value.

Target: human Nav1.8 (Homo sapiens, UniProt Q9Y5Y9)
Test: whole-cell manual patch clamp dose-response, […] °C
Type: cell-based

Sequence of human Nav1.8 (Q9Y5Y9 whole entry): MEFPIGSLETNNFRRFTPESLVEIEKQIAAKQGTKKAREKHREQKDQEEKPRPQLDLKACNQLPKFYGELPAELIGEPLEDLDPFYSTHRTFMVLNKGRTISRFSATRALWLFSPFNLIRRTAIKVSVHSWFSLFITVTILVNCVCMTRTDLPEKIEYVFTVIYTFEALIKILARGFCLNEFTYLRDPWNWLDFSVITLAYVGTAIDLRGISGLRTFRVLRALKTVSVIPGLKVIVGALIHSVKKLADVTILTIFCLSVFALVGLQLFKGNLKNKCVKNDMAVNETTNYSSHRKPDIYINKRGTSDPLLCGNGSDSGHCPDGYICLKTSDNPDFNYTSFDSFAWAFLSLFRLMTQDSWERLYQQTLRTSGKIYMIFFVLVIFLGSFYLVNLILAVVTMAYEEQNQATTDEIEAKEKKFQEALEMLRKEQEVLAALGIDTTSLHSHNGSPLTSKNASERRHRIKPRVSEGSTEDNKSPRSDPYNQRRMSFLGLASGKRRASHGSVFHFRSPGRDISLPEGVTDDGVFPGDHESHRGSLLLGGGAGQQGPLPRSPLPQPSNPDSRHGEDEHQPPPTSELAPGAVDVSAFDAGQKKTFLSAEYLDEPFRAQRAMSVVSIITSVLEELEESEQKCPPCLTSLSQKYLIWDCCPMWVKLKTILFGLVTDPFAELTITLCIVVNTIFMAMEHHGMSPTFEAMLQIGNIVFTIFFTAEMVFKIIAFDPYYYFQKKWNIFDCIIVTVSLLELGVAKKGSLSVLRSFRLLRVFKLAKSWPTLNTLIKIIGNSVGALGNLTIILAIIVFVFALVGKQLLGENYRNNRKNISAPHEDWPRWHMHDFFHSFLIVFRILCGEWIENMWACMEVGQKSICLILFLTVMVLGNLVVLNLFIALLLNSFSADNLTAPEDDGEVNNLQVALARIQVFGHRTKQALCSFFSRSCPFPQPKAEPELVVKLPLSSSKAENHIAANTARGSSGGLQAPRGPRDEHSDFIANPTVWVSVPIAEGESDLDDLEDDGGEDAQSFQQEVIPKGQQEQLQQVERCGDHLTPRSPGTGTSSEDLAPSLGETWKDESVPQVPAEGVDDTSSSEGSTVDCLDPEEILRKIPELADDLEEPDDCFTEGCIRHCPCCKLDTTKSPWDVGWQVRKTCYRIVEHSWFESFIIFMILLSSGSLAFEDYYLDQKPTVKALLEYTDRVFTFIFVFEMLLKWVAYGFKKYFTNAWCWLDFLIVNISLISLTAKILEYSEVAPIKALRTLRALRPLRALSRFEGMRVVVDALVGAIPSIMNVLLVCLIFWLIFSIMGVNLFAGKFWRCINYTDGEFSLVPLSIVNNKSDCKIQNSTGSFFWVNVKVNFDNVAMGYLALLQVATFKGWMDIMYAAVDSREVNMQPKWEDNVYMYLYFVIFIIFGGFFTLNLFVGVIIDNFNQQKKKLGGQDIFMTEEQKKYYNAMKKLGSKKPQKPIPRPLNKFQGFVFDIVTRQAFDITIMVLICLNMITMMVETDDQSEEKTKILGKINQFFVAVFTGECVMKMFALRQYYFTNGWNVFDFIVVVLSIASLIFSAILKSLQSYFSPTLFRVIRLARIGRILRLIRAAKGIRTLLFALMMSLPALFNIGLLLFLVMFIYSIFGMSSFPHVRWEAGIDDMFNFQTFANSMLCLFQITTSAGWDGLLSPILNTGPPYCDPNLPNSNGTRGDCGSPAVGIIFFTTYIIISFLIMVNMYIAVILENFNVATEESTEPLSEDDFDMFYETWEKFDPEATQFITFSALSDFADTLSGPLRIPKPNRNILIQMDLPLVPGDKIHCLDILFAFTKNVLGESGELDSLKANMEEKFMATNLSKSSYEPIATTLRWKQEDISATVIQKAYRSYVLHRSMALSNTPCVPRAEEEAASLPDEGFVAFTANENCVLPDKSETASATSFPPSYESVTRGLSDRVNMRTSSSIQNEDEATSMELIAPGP
Sequence of human Nav1.8 (Q9NY72 23-215 partner): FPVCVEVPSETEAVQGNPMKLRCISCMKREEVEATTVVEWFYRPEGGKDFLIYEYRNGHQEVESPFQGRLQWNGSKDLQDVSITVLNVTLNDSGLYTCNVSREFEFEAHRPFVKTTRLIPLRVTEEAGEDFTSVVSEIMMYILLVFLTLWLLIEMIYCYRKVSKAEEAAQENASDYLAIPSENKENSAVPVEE

COc1c([C@H]2[C@H](C(=O)Nc3ccnc(C(N)=O)c3)O[C@@](C)(C(F)(F)F)[C@H]2C)ccc(F)c1F [VX-548]
pKd: 10.14
